We go through 14 compounds from ChEMBL document CHEMBL5370668, “Expected and Unexpected Products from the Biochemical Oxidation of Bacterial Alkylquinolones with CYP4F11” (2023).

Molecules are shown by their SMILES. Active and inactive are the calls of the source. The calls are words filed in the database; no cut-off is given here.

Assay [1] concerns Staphylococcus epidermidis. In words: Antimicrobial activity against Staphylococcus epidermidis ATCC 14990 assessed as zone of inhibition at 60 ug incubated overnight by agar well diffusion assay. Format: functional. Conditions: read-out: DIZ.
Another assay has as its system Candida albicans. In words: Antibiofilm activity against Candida albicans assessed as reduction in biofilm formation at 100 uM incubated for 48 hrs by XTT biofilm assay. Type of assay: functional, organism-based.
Another assay deals with Staphylococcus aureus. As to the kind of experiment: Antimicrobial activity against Staphylococcus aureus ATCC 12600 assessed as zone of inhibition at 60 ug incubated overnight by agar well diffusion assay. Type of assay: functional. To be noted: read-out: DIZ.

As to `O=c1cc(CCCCCCCO)[nH]c2ccccc12`, the zone of inhibition at 60 µg/disc (in assay [1]; in the assay on Staphylococcus aureus) was 0 mm throughout. Further, the result with Candida albicans was inactive.
On to `CC(=O)OCCCCCCCCCc1cc(=O)c2ccccc2[nH]1`, for which the zone of inhibition at 60 µg/disc (in assay [1]; in the assay with Staphylococcus aureus) was 11 mm each time.
For the compound `CCCCCCCCc1cc(=O)c2ccccc2[nH]1`, the zone of inhibition at 60 µg/disc in assay [1] stood at 12 mm; in the assay with Staphylococcus aureus it was 11 mm. In addition, the result in the assay on Candida albicans was Active.
The matching figures for `CCCCCCCCCc1cc(=O)c2ccccc2[nH]1`: 12 mm, 12 mm and “Active”.
Turning to `CCCCCCCc1cc(=O)c2ccccc2[nH]1`, the zone of inhibition at 60 µg/disc (in assay [1]; in the assay with Staphylococcus aureus) was 13 mm each time. Besides, in the assay on Candida albicans, the outcome was Active.
With `CCCCCc1cc(O)c2ccccc2n1`, the zone of inhibition at 60 µg/disc in assay [1] is 14 mm; in the assay on Staphylococcus aureus, 13 mm. In addition, in the assay with Candida albicans, the result was Active.
For the compound `O=c1cc(CCCCCCCCO)[nH]c2ccccc12`, the zone of inhibition at 60 µg/disc (in assay [1]; with Staphylococcus aureus) was 0 mm throughout.
As to `CC(=O)OCCCCCCCc1cc(=O)c2ccccc2[nH]1`, the figures for the zone of inhibition at 60 µg/disc (in assay [1]; with Staphylococcus aureus) were 7 mm and 8 mm, respectively.
Consider `CC(=O)OCCCCCCCCCCc1cc(=O)c2ccccc2[nH]1`, for which the zone of inhibition at 60 µg/disc (in assay [1]; in the assay on Staphylococcus aureus) was 10 mm throughout.
`CC1(C)S[C@@H]2[C@H](NC(=O)Cc3ccccc3)C(=O)N2[C@H]1C(=O)O` [PENICILLIN G]: the figures for the zone of inhibition at 60 µg/disc (in assay [1]; in the assay with Staphylococcus aureus) were 38 mm and 41 mm, respectively.
For `O=c1cc(CCCCCCCCCCO)[nH]c2ccccc12`, the zone of inhibition at 60 µg/disc (in assay [1]; with Staphylococcus aureus) was 0 mm throughout. Further, the result in the assay with Candida albicans was inactive.
On to `O=c1cc(CCCCCCCCCO)[nH]c2ccccc12`, for which the zone of inhibition at 60 µg/disc (in assay [1]; with Staphylococcus aureus) was 0 mm in each case. The outcome in the assay with Candida albicans was inactive.
`CC(=O)OCCCCCCCCc1cc(=O)c2ccccc2[nH]1`: the zone of inhibition at 60 µg/disc (in assay [1]; in the assay on Staphylococcus aureus) was 9 mm in each case.
Consider `CCCCCCCCCCc1cc(=O)c2ccccc2[nH]1`, for which the zone of inhibition at 60 µg/disc was 12 mm in assay [1] and 10 mm in the assay with Staphylococcus aureus. The outcome in the assay on Candida albicans was Active.
